Results: ChEMBL document CHEMBL1151893, “Synthesis of analogs of forodesine HCl, a human purine nucleoside phosphorylase inhibitor-Part I” (Bioorg Med Chem Lett, 2009)

The molecules below were run against T1, Purine nucleoside phosphorylase (Homo sapiens, UniProt P00491) (assay: Inhibition of human purine nucleoside phosphorylase).
T1 sequence (P00491 whole entry): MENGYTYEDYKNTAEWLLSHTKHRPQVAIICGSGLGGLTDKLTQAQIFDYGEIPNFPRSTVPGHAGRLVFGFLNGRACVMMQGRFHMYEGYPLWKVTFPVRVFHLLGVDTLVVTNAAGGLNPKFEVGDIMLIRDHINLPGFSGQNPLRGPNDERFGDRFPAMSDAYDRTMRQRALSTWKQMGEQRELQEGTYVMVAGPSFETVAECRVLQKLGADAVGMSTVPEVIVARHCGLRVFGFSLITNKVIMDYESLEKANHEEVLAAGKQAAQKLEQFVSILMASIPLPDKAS

| SMILES | IC50 [nM] |
| --- | --- |
| O=c1[nH]cnc2c([C@@]3(CO)NC[C@H](O)[C@@H]3O)c[nH]c12 | 100 |
| O=C(O)c1[nH]c2c(=O)[nH]cnc2c1[C@@H]1N[C@H](CO)[C@@H](O)[C@H]1O | 100 |
| O=c1[nH]cnc2cc([C@@H]3N[C@H](CO)[C@@H](O)[C@H]3O)[nH]c12 | 100 |
